Consider three compounds from US8518917B2, “2-methylene-19-nor-vitamin D analogs and their uses” (Wisconsin Alumni Research Foundation, priority 2009, dated 2013).

The structures appear in SMILES notation. Where two headings read alike, the source gives them in different places.

In assay [1] the target is T1, full-length recombinant rat vitamin D receptor (Rattus norvegicus, UniProt P13053).
T1 construct: Full-length recombinant rat receptor was expressed in E. coli; histidine tag (C); made in house; host or cells: E. coli BL21 (DE3) Codon Plus RIL
T1 sequence (P13053 1-423): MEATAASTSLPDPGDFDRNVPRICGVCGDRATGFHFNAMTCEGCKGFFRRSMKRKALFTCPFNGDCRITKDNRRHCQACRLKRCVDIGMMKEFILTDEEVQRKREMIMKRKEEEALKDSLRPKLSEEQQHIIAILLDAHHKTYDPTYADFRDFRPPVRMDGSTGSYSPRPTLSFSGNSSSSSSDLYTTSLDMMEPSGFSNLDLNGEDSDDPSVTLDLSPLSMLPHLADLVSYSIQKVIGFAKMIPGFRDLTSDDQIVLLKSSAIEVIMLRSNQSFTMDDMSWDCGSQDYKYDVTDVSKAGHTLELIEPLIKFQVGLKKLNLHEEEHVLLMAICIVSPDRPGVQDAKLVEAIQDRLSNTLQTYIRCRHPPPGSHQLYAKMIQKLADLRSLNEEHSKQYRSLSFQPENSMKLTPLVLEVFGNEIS
As to the kind of experiment: Vitamin D receptor competitive binding with [3H]-1,25(OH)2D3. Conditions: read-out: Ki, competition with [3H]-1,25(OH)2D3 for binding to vitamin D receptor. The protocol: Full-length recombinant rat receptor was expressed in E. coli BL21 (DE3) Codon Plus RIL cells and purified to homogeneity using two different column chromatography systems. The first system was a nickel affinity resin that utilizes the C-terminal histidine tag on this protein. The protein that was eluted from this resin was further purified using ion exchange chromatography (S-Sepharose Fast Flow). Aliquots of the purified protein were quick frozen in liquid nitrogen and stored at −80° C. until use. For use in binding assays, the protein was diluted in TEDK50 (50 mM Tris, 1.5 mM EDTA, pH7.4, 5 mM DTT, 150 mM KCl) with 0.1% Chaps detergent. The receptor protein and ligand concentration was optimized such that no more than 20% of the added radiolabeled ligand was bound to the receptor.
The following day, 100 mcl of hydroxylapatite slurry (50%) was added to each tube and mixed at 10-minute intervals for 30 minutes. […] After the final wash, the pellets were transferred to scintillation vials containing 4 ml of Biosafe II scintillation cocktail, mixed and placed in a scintillation counter. Total binding was determined from the tubes containing only radiolabeled ligand.

In assay [2] the test system is Human promyelocytic leukemia (HL60) cells. Description: HL-60 cell differentiation (nitro blue tetrazolium reduction). Type of assay: cell-based. Conditions: four days treatment, read-out: EC50, promotion of HL60 differentiation. The protocol: The study drugs were dissolved in ethanol and the concentrations determined using UV spectrophotometry. Serial dilutions were prepared so that a range of drug concentrations could be tested without changing the final concentration of ethanol (≦0.2%) present in the cell cultures.
Human promyelocytic leukemia (HL60) cells were grown in RPMI-1640 medium containing 10% fetal bovine serum. The cells were incubated at 37° C. in the presence of 5% CO2.
HL60 cells were plated at 1.2×10^5 cells/ml. Eighteen hours after plating, cells in duplicate were treated with drug. Four days later, the cells were harvested and a nitro blue tetrazolium reduction assay was performed (Collins et al., 1979; J. Exp. Med. 149:969-974). The percentage of differentiated cells was determined by counting a total of 200 cells and recording the number that contained intracellular black-blue formazan deposits. Verification of differentiation to monocytic cells was determined by measuring phagocytic activity (data not shown).

Assay [3] relates to vitamin D-deficient rats. Description: Bone calcium mobilization (serum calcium). Type of assay: in vivo, rat. The protocol: (§1) Male, weanling Sprague-Dawley rats were placed on Diet 11 (Suda et al, J. Nutr. 100:1049, 1970) (0.47% Ca)+vitamins AEK for one week followed by Diet 11 (0.02% Ca)+vitamins AEK for 3 weeks. The rats were then switched to the same diet containing 0.47% Ca for one week followed by two weeks on the same diet containing 0.02% Ca. Dose administration began during the last week on 0.02% calcium diet. Four consecutive ip doses were given approximately 24 hours apart. Twenty-four hours after the last dose, blood was collected from the severed neck and the concentration of serum calcium determined by atomic absorption spectrometry as a measure of bone calcium mobilization. The first 10 cm of the intestine was also collected for intestinal calcium transport analysis using the everted gut sac method.

Assay [4] relates to vitamin D-deficient rats. As to the kind of experiment: Intestinal calcium transport (everted gut sac method). Type of assay: in vivo, rat. Conditions: rats on 0.02% Ca diet, four consecutive ip doses. Here is the method:
as §1

In assay [5] the test system is 24-hydroxylase (24Ohase) gene promoter. As to the kind of experiment: In vitro transcription assay, luciferase reporter in ROS 17/2.8 (bone) cells. The following applies: FIG. 3; for EC50: ROS 17/2.8 cells, sixteen hours after dosing, read-out: EC50, transcriptional activity in bone cells (24-hydroxylase gene). Type of assay: cell-based. Here is the method:
Transcription activity was measured in ROS 17/2.8 (bone) cells that were stably transfected with a 24-hydroxylase (24Ohase) gene promoter upstream of a luciferase reporter gene (Arbour et al., 1998). Cells were given a range of doses. Sixteen hours after dosing the cells were harvested and luciferase activities were measured using a luminometer. RLU=relative luciferase units.

Setting [6] is: 780 pmol/day for 4 consecutive days, ip, rats on 0.02% Ca diet.
Setting [7] is: four consecutive ip doses, rats on 0.02% Ca diet.

As to `C=C1CC/C(=C\C=C2/CCC[C@]3(C)[C@@H]([C@H](C)CCCC(C)(C)O)CC[C@@H]23)C[C@H]1O` [1D-MJ, (20R)-25-hydroxy-2-methylene-19-nor-vitamin D3], the Ki in assay [1] (FIG. 6 experiment (1D-MJ vs 1,25(OH)2D3)) amounted to 4 nM. In addition, in assay [2] (Homo sapiens, HL-60, 96 h, FIG. 7 experiment), the EC50 came to 300 nM. The “mobilization of bone calcium (serum calcium)” value (“mobilization of bone calcium” below) in assay [3] (setting [6]) is on record as “little or no mobilization of bone calcium”. For the same compound, in assay [3] (setting [7]), the “dose until which little to no bone calcium mobilization activity is observed” value was ≥ 7020 pmol/rat. The “times less potent than 1,25(OH)2D3 in promoting intestinal calcium transport” value in assay [4] is recorded as “about 10 times”.
For the compound `C=C1/C(=C\C=C2/CCC[C@]3(C)[C@@H]([C@H](C)CCCC(C)(C)O)CC[C@@H]23)C[C@@H](O)C[C@@H]1O` [1α,25-dihydroxyvitamin D3, reference compound], the EC50 in assay [2] (FIG. 2 experiment) was determined as 4 nM; in assay [2] (FIG. 7 experiment), 3 nM; in assay [5], 0.2 nM. The “mobilization of bone calcium” value in assay [3] (87 pmol, four consecutive ip doses, FIG. 8) is given as “significant increases in serum calcium”; in assay [3] (setting [6]), “significant increases in serum calcium”.
As to `C=C1CC/C(=C\C=C2/CCC[C@]3(C)[C@@H]([C@@H](C)CCCC(C)(C)O)CC[C@@H]23)C[C@H]1O` [1-desoxy-2MD, (20S)-25-hydroxy-2-methylene-19-nor-vitamin D3], the inhibitory constant (Ki) in assay [1] (FIG. 1 experiment (1-desoxy-2MD vs 1,25(OH)2D3)) worked out at 0.1 nM. For the same compound, the concentration giving a half-maximal response (EC50) in assay [2] (Homo sapiens, HL-60, 96 h, FIG. 2 experiment) is 10 nM; in assay [5], 4 nM. Moreover, the “times less potent than 1,25(OH)2D3 in increasing transcription of the 24-hydroxylase gene” value in assay [5] (bone cells) is given as “about 20 times”. For the same compound, in assay [3] (setting [6]), the “mobilization of bone calcium” value is given as “little or no mobilization of bone calcium”. Further, the “dose until which little to no bone calcium mobilization activity is observed” value in assay [3] (setting [7]) was ≥ 7020 pmol/rat. Further, in assay [4], the “times less potent than 1,25(OH)2D3 in promoting intestinal calcium transport” value is given as “about 20 times”.
